ChEMBL document CHEMBL5344430, “Targeting the Translocator Protein (18 kDa) in Cardiac Diseases: State of the Art and Future Opportunities” (J Med Chem, 2024)
pKi: −log10 of the molar value. One block for each compound: values may come before it.

Tests used:
physchem [1] = conditions: buffer, pH 7.4
Description: Lipophilicity, logD of compound at pH 7.4 by HPLC analysis

Translocator protein [2] = target: T1, Translocator protein (Homo sapiens, UniProt P30536)
Description: Binding affinity to human TSPO assessed as inhibition constant

physchem [3] = conditions: buffer, pH 6.8
Description: Lipophilicity, logD of compound at pH 6.8

Albumin = Albumin (Macaca fascicularis, UniProt A2V9Z4)
Description: Binding affinity to monkey albumin

Translocator protein [4] = target: Translocator protein (Rattus norvegicus, UniProt P16257)
Description: Binding affinity to rat TSPO receptor assessed as inhibition constant

Translocator protein [5] = target: T1, Translocator protein; remark: listed apart in the source
Description: Binding affinity to human mitochondrial TSPO

[6] = Lipophilicity, logD of the compound at pH 7.4; type: physicochemical; conditions: buffer

T1 sequence (P30536 whole entry): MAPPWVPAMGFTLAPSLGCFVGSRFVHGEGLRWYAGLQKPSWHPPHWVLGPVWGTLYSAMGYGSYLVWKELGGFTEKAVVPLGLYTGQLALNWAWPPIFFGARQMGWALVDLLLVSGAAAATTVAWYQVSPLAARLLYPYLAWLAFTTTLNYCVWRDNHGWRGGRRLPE
Sequence of Translocator protein (Rattus norvegicus, UniProt P16257) (P16257 whole entry, looked up): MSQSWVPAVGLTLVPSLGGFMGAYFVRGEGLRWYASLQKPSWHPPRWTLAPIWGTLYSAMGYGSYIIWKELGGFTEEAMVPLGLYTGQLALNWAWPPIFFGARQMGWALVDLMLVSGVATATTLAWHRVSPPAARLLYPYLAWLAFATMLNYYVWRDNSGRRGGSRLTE
Sequence of Albumin (A2V9Z4 whole entry): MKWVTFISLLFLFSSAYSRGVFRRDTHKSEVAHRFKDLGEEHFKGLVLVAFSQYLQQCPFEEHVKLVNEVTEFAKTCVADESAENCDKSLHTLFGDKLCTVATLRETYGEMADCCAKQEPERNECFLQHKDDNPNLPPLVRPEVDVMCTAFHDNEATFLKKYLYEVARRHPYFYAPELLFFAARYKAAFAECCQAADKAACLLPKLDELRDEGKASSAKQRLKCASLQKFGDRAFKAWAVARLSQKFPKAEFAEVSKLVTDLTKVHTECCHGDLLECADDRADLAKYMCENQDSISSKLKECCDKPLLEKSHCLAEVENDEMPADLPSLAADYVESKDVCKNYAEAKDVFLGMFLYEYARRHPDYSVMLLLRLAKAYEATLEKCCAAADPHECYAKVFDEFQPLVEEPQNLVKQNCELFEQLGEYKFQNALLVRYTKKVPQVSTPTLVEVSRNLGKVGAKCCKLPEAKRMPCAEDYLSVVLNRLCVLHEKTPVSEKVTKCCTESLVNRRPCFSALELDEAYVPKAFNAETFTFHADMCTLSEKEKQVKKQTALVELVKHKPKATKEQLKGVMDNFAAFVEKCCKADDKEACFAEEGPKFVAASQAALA

SMILES: CCCN(CCC)C(=O)Cc1c(-c2ccc(OCC[18F])cc2)nc2c(Cl)cc(Cl)cn12
logD (physchem [1]): 3

SMILES: COc1ccccc1CN(C(=O)C[18F])c1cnccc1Oc1ccccc1
pKi (Translocator protein [2]): 9.00 | logD (physchem [3]): 4.01 | pKi (Albumin): 9.52 | pKi (Translocator protein [4]): 9.74

SMILES: CC[C@@H](C)N([11CH3])C(=O)c1cc2ccccc2c(-c2ccccc2Cl)n1
logD (physchem [1]): 3.97

Other lines, results leading:

logD (physchem [1]): 3.81
SMILES: COc1ccc(OCC[18F])c(CN(C(C)=O)c2cc(F)ccc2Oc2ccccc2)c1

pKi (Translocator protein [5]): 8.66 | logD [6]: 3.01
SMILES: CC(=O)N(Cc1ccccc1O[11CH3])c1cnccc1Oc1ccccc1
